Like-named read-outs stand apart in the source and are kept apart here.
How the values were obtained:
[1] = system: EGF-induced BrdU incorporation; test: EGF-induced BrdU incorporation assay; assay type: cell-based; details: read-out: EGF-Induced BrdU Incorp. IC50
Description: (§1) PDGF-, FGF-, and EGF-Induced BRDU Incorporation Assay
(§2) 1. Cells were seeded at 8000 cells/well in DMEM, 10% CS, 2 mM Gln in a 96 well plate. Cells were incubated overnight at 37° C. in 5% CO2.
(§3) 2. After 24 hours, the cells were washed with PBS, and then were serum starved in serum free medium (0% CS DMEM with 0.1% BSA) for 24 hours.
(§4) 3. On day 3, ligand (PDGF=3.8 nM, prepared in DMEM with 0.1% BSA) and test compounds were added to the cells simultaneously. The negative control wells received serum free DMEM with 0.1% BSA only; the positive control cells received the ligand (PDGF) but no test compound. Test compounds were prepared in serum free DMEM with ligand in a 96 well plate, and serially diluted for 7 test concentrations.
(§5) 4. After 20 hours of ligand activation, diluted BrdU labeling reagent (1:100 in DMEM, 0.1% BSA) was added and the cells were incubated with BrdU (final concentration=10 μM) for 1.5 hours.
(§6) 5. After incubation with labeling reagent, the medium was removed by decanting and tapping the inverted plate on a paper towel. FixDenat solution was added (50 μL/well) and the plates were incubated at room temperature for 45 minutes on a plate shaker.
(§7) 6. The FixDenat solution was thoroughly removed by decanting and tapping the inverted plate on a paper towel. Milk was added (5% dehydrated milk in PBS, 200 μL/well) as a blocking solution and the plate was incubated for 30 minutes at room temperature on a plate shaker.
(§8) 7. The blocking solution was removed by decanting and the wells were washed once with PBS. Anti-BrdU-POD solution (1:100 dilution in PBS, 1% BSA) was added (100 μL/well), and the plate was incubated for 90 minutes at room temperature on a plate shaker.
(§9) 8. The antibody conjugate was thoroughly removed by decanting and rinsing the wells 5 times with PBS, and the space was dried by inverting and tapping on a paper towel.
(§10) 9. TMB substrate solution was added (100 μL/well) and incubated for 20 minutes at room temperature on a plate shaker until color development was sufficient for photometric detection.
(§11) 10. The absorbance of the samples were measured at 410 nm (in “dual wavelength” mode with a filter reading at 490 nm, as a reference wavelength) on a Dynatech ELISA plate reader.
(§12) The IC50 values were measured for several of the compounds of the invention. These values are depicted in Table 10.

[2] = system: FGF-induced BrdU incorporation; test: FGF-induced BrdU incorporation assay; assay type: cell-based; details: read-out: FGF-Induced BrdU Incorp. IC50
Description: as §1, §2, §3, §4, §5, §6, §7, §8, §9, §10, §11, §12

[3] = system: HUV-EC-C cells; aFGF (ECGF); test: HUVEC-aFGF 3H-thymidine incorporation assay; assay type: cell-based, human
Description: The following protocol is used to measure a compound's activity against VEGF and aFGF, all of which are expressed by HUVEC cells.
Repeat the wash two more times with D-PBS, resuspend the cells in about 1 mL assay medium/15 cm^2 of tissue culture flask.
Add cells to 96-well flat-bottom plates at 100 μL/well or 0.8-1.0×10^4 cells/well; incubate ˜24h at 37° C., 5% CO^2.
Use the same assay medium as mentioned in day 0, step 2 above. Titrations are made by adding 90 μL/well of drug at 200 μM (4× the final well concentration) to the top well of a particular plate column. Since the stock drug concentration is usually 20 mM in DMSO, the 200 μM drug concentration contains 2% DMSO.
Therefore, diluent made up to 2% DMSO in assay medium (F12K+0.5% fetal bovine serum) is used as diluent for the drug titrations in order to dilute the drug but keep the DMSO concentration constant. Add this diluent to the remaining wells in the column at 60 μL/well. Take 60 μL from the 120 μL of 200 μM drug dilution in the top well of the column and mix with the 60 μL in the second well of the column. Take 60 μL from this well and mix with the 60 μL in the third well of the column, and so on until two-fold titrations are completed. When the next-to-the-last well is mixed, take 60 μL of the 120 μL in this well and discard it. Leave the last well with 60 μL of DMSO/media diluent as a non-drug-containing control. Make 9 columns of titrated drug, enough for triplicate wells each for 1) VEGF (obtained from Pepro Tech Inc., catalogue no. […] ECGF comes as a preparation with sodium heparin.
Transfer 50 μL/well of the drug dilutions to the 96-well assay plates containing the 0.8-1.0×10^4 cells/100 μL/well of the HUV-EC-C cells from day 0. and incubate ˜2 h at 37° C., 5% CO2.
In triplicate, add 50 μL/well of 80 μg/mL VEGF, 20 ng/mL ECGF, or media control to each drug condition. As with the drugs, the growth factor concentrations are 4× the desired final concentration. Use the assay media from day 0 step 2 to make the concentrations of growth factors.
Freeze plates overnight at 20° C.

[4] = system: 3T3 cell line genetically engineered to express human PDGF-R; test: PDGF-induced BrdU incorporation assay; assay type: cell-based; details: 3T3 cells expressing human PDGF-R, read-out: PDGF-Induced BrdU Incorp. IC50
Description: (1) PDGF: human PDGF B/B; 1276-956, Boehringer Mannheim, Germany
(8) 3T3 cell line genetically engineered to express human PDGF-R.
as §2, §3, §4, §5, §6, §7, §8, §9, §10, §11, §12

Q: With O=C(O)CCc1c(C=C2C(=O)Nc3ccccc32)[nH]c2c1CCCC2 [IN-001, 3-[2-(2-Oxo-1,2-dihydro-indol-3-ylidenemethyl)-4,5,6,7-tetrahydro-1H-indol-3-yl]-propionic acid] as the molecule, how does the IC50 [1] read?
A: 95.4 µM

Q: And the IC50 [2]?
A: 18.2 µM

Q: What about the IC50 ([3]; Homo sapiens) of the same molecule?
A: 0.0159 µM

Q: And the IC50 ([4]; NIH3T3, PDGF 3.8 nM)?
A: 2.9 µM

Q: For O=C(O)CCc1c(C=C2C(=O)Nc3ccc(Cl)cc32)[nH]c2c1CCCC2 [IN-002, 3-[2-(5-Chloro-2-oxo-1,2-dihydro-indol-3-ylidenemethyl)-4,5.6,7-tetrahydro-1H-indol-3-yl]-propionic acid], which IC50 ([1]; EGF-induced) is on record?
A: 83.5 µM

Q: And the IC50 ([2]; FGF-induced)?
A: 23.6 µM

Q: And the IC50 [3]?
A: 0.25 µM

Q: What about the IC50 ([4]; PDGF […]) of the same molecule?
A: 1.1 µM

Q: For O=C(O)CCc1c(C=C2C(=O)Nc3ccc(Br)cc32)[nH]c2c1CCCC2 [IN-003, 3-[2-(5-Bromo-2-oxo-1,2-dihydro-indol-3-ylidenemethyl)-4,5,6,7-tetrahydro-1H-indol-3-yl]-propionic acid], which IC50 [1] is on record?
A: 78.5 µM

Q: What about the IC50 [2] of the same molecule?
A: 15.7 µM

Q: And the IC50 ([3]; Homo sapiens)?
A: 0.076 µM

Q: What about the IC50 ([4]; NIH3T3, PDGF 3.8 nM) of the same molecule?
A: 1.4 µM

Q: What does the source list for Cc1cccc2c1C(=Cc1[nH]c3c(c1CCC(=O)O)CCCC3)C(=O)N2 [IN-004, 3-[2-(4-Methyl-2-oxo-1,2-dihydro-indol-3-ylidenemethyl)-4,5,6,7-tetrahydro-1H-indol-3-yl]-propionic acid]?
A: IC50 [1]: 52 µM; IC50 [2]: 26.7 µM; IC50 ([3]; Homo sapiens): 0.0025 µM; IC50 ([4]; NIH3T3, PDGF 3.8 nM): 13.5 µM

Q: With Cc1ccc2c(c1)C(=Cc1[nH]c3c(c1CCC(=O)O)CCCC3)C(=O)N2 [IN-005, 3-[2-(5-Methyl-2-oxo-1,2-dihydro-indol-3-ylidenemethyl)-4,5,6,7-tetrahydro-1H-indol-3-yl]-propionic acid] as the molecule, how does the IC50 [1] read?
A: 61.5 µM

Q: What about the IC50 [2] of the same molecule?
A: 30.1 µM

Q: And the IC50 ([3]; Homo sapiens)?
A: 0.0044 µM

Q: What about the IC50 ([4]; NIH3T3, PDGF 3.8 nM) of the same molecule?
A: 14.2 µM

Q: How did the IC50 [1] turn out when COc1ccc2c(c1)NC(=O)C2=Cc1[nH]c2c(c1CCC(=O)O)CCCC2 [IN-007, 3-[2-(6-Methoxy-2-oxo-1,2-dihydro-indol-3-ylidenemethyl)-4,5,6,7-tetrahydro-1H-indol-3-yl]-propionic acid] was run?
A: > 100 µM

Q: And the IC50 [2]?
A: 42.1 µM

Q: And the IC50 ([3]; Homo sapiens)?
A: 1.6 µM

Q: What about the IC50 ([4]; NIH3T3, PDGF 3.8 nM) of the same molecule?
A: 3 µM

Q: Which results are given for CN(C)C(=O)CCc1c(C=C2C(=O)Nc3ccccc32)[nH]c2c1CCCC2 [IN-008, N,N-Dimethyl-3-[2-(2-oxo-1,2-dihydro-indol-3-ylidenemethyl)-4,5,6,7-tetrahydro-1H-indol-3-yl]-propionamide]?
A: IC50 [1]: > 50 µM; IC50 [2]: > 50 µM; IC50 ([3]; Homo sapiens): 2.2 µM; IC50 ([4]; NIH3T3, PDGF 3.8 nM): 4.9 µM

Q: Which IC50 [1] does the source give for CN(C)CCCc1c(C=C2C(=O)Nc3ccccc32)[nH]c2c1CCCC2 [IN-009, 3-[3-(3-Dimethylamino-propyl)-4,5,6,7-tetrahydro-1H-indol-2-ylmethylene]-1,3-dihydro-indol-2-one] here?
A: > 50 µM

Q: What about the IC50 [2] of the same molecule?
A: > 50 µM

Q: What about the IC50 ([3]; Homo sapiens) of the same molecule?
A: 1.7 µM

Q: What about the IC50 ([4]; NIH3T3, PDGF 3.8 nM) of the same molecule?
A: 4.2 µM

Q: Which IC50 [1] does the source give for NC(=O)CCc1c(C=C2C(=O)Nc3ccccc32)[nH]c2c1CCCC2 [IN-010, 3-[2-(2-Oxo-1,2-dihydro-indol-3-ylidenemethyl)-4,5,6,7-tetrahydro-1H-indol-3-yl]-propionamide] here?
A: 95.4 µM

Q: What about the IC50 [2] of the same molecule?
A: > 50 µM

Q: And the IC50 ([3]; Homo sapiens)?
A: 0.1 µM

Q: And the IC50 ([4]; NIH3T3, PDGF 3.8 nM)?
A: 3.5 µM

Q: Which IC50 [1] does the source give for O=C1Nc2ccccc2C1=Cc1[nH]c2c(c1CCC(=O)N1CCOCC1)CCCC2 [IN-011, 3-[3-(3-Morpholin-4-yl-3-oxo-propyl)-4,5 6,7-tetrahydro-1H-indol-2-ylmethylene]-1,3-dihydro-indol-2-one] here?
A: 83.5 µM

Q: What about the IC50 [2] of the same molecule?
A: > 50 µM

Q: And the IC50 ([3]; Homo sapiens)?
A: 9.2 µM

Q: And the IC50 ([4]; NIH3T3, PDGF 3.8 nM)?
A: 8.6 µM

Q: What does the source list for CNC(=O)CCc1c(C=C2C(=O)Nc3ccccc32)[nH]c2c1CCCC2 [IN-012, N-Methyl-3-[2-(2-oxo-1,2-dihydro-indol-3-ylidenemethyl)-4,5,6,7-tetrahydro-1H-indol-3-yl]-propionamide]?
A: IC50 [1]: 78.5 µM; IC50 [2]: > 50 µM; IC50 ([3]; Homo sapiens): 0.16 µM; IC50 ([4]; NIH3T3, PDGF 3.8 nM): 3.9 µM

Q: How did the IC50 [1] turn out when O=C(CCc1c(C=C2C(=O)Nc3ccccc32)[nH]c2c1CCCC2)NCCN1CCOCC1 [IN-013, N-(2-Morpholin-4-yl-ethyl)-3-[2-(2-oxo-1,2-dihydro-indol-3-ylidenemethyl)-4,5,6,7-tetrahydro-1H-indol-3-yl]-propionamide] was run?
A: 52 µM

Q: And the IC50 [2]?
A: > 50 µM

Q: And the IC50 ([3]; Homo sapiens)?
A: 2.1 µM

Q: And the IC50 ([4]; NIH3T3, PDGF 3.8 nM)?
A: 5.2 µM

Q: Cc1c[nH]c(C=C2C(=O)Nc3ccccc32)c1CCC(=O)O [IN-026, 3-[4-Methyl-2-(2-oxo-1,2-dihydro-indol-3-ylidenemethyl)-1H-pyrrol-3-yl]-propionic acid] was tested. Which IC50 [1] did it give?
A: > 100 µM

Q: And the IC50 [2]?
A: 25 µM

Q: And the IC50 ([3]; Homo sapiens)?
A: 1.1 µM

Q: What about the IC50 ([4]; NIH3T3, PDGF 3.8 nM) of the same molecule?
A: 20 µM

Q: How did the IC50 [1] turn out when Cc1c[nH]c(C=C2C(=O)Nc3ccc(Cl)cc32)c1CCC(=O)O [IN-027, 3-[2-(5-Chloro-2-oxo-1,2-dihydro-indol-3-ylidenemethyl)-4-methyl-1H-pyrrol-3-yl]-propionic acid] was run?
A: > 50 µM

Q: And the IC50 ([3]; Homo sapiens)?
A: 1.4 µM

Q: Which results are given for COc1ccc2c(c1)NC(=O)C2=Cc1[nH]cc(C)c1CCC(=O)O [IN-028, 3-[2-(6-Methoxy-2-oxo-1,2-dihydro-indol-3-ylidenemethyl)-4-methyl-1H-pyrrol-3-yl]-propionic acid]?
A: IC50 [1]: > 50 µM; IC50 [2]: > 50 µM; IC50 ([3]; Homo sapiens): 4.8 µM; IC50 ([4]; NIH3T3, PDGF 3.8 nM): 8.7 µM

Q: What does the source list for Cc1c[nH]c(C=C2C(=O)Nc3cccc(C)c32)c1CCC(=O)O [IN-029, 3-[2-(4-Methyl-2-oxo-1,2-dihydro-indol-3-ylidenemethyl)-4-methyl-1H-pyrrol-3-yl]-propionic acid]?
A: IC50 ([1]; EGF-induced): 43.5 µM; IC50 [2]: > 50 µM; IC50 ([3]; Homo sapiens): 0.35 µM; IC50 ([4]; NIH3T3, PDGF 3.8 nM): 24.8 µM

Q: Which IC50 [1] does the source give for Cc1c[nH]c(C=C2C(=O)Nc3cc(Cl)ccc32)c1CCC(=O)O [IN-030, 3-[2-(6-Chloro-2-oxo-1,2-dihydro-indol-3-ylidenemethyl)-4-methyl-1H-pyrrol-3-yl]-propionic acid] here?
A: > 50 µM

Q: What about the IC50 [2] of the same molecule?
A: > 50 µM

Q: And the IC50 ([3]; Homo sapiens)?
A: 0.26 µM

Q: What about the IC50 ([4]; NIH3T3, PDGF 3.8 nM) of the same molecule?
A: 7.9 µM

Q: Which IC50 [1] does the source give for Cc1c[nH]c(C=C2C(=O)Nc3ccc(Br)cc32)c1CCC(=O)O [IN-031, 3-[2-(5-Bromo-2-oxo-1,2-dihydro-indol-3-ylidenemethyl)-4-methyl-1H-pyrrol-3-yl]-propionic acid] here?
A: > 50 µM

Q: And the IC50 [2]?
A: > 50 µM

Q: And the IC50 ([4]; NIH3T3, PDGF 3.8 nM)?
A: 8.5 µM

— patent publication US20040067531A1, “Methods of modulating protein tyrosine kinase function with substituted indolinone compounds” (SUGEN, INC., priority 1997, published 2004)
